Results as given in patent US8344028B2, “Gamma-amino-butyric acid derivatives as GABAB receptor ligands” (XenoPort, Inc., priority 2009, dated 2013).

target: GABAB receptor (Homo sapiens, UniProt Q9UBS5); assay: GABAB receptor agonist or partial agonist activity by binding, electrophysiology, cAMP and/or Ca2+ assay methods (Examples 83-86); type: cell-based
Protocol: An assay using rat cerebral cortex membranes was used to determine the affinity of GABAB receptor ligands for the GABAB receptor.
An assay buffer of 50 mM Tris pH 7.4 was prepared with 100 μM of isoguvacine, to block GABAA interactions. The assay buffer with isoguvacine was used for dilution of membranes, compounds, and radiolabel.
Rat cerebral cortex membranes were diluted in assay buffer at 1 mg/mL and aliquoted into a 96-well plate at 900 μL/well. Buffer or test compound were added at 20-times final concentration in the buffer at 50 μL/well. Membranes and test compounds or buffer were incubated for 10 min. at room temperature. Radiolableled [S—(R*,R*)]-[3-[[1-(3,4-dichlorophenyl)ethyl]amino]-2-hydroxypropyl](cyclohexylmethyl) phosphinic acid (CGP54626) was then added at 50 μL/well in the buffer at 1-10 nM concentration in 50 μl. […] The assay mixture was filtered using Brandell filtration apparatus and GFB filters, washed twice with 3 mL of 4° C., 50 mM Tris pH 7.4, buffer without isoguvacine. The filters were then dried at room temperature and the dried filters punched out and placed in individual vials. Three (3) mL of scintillation fluid was added to each vial and the radiolabel counted on the scintillation counter. The inverse amount of radiolabel was indicative of binding of a test compound to the GABAB receptor.
The following procedure was used to determine the level of intracellular cAMP. Recombinant HEK cells expressing the GABAB R1a2 receptor were used in the experiments. cAMP levels were measured using a cAMP XS^+ HitHunter™ Chemiluminescence Assay Kit (90-0075-02, GE Healthcare Biosciences Corp.). Cells were seeded overnight at 5,000 cells per well, in black, clear bottom 96-well plates. The following morning, cells were washed twice with 100 μL PBS per well. Forskolin was weighed out and dissolved in DMSO to a final concentration 100 mM. One-hundred (100) μM forskolin solutions were prepared in PBS with and without test compound at 1-times final concentration. Thirty (30) μL of the test solutions were added to the wells and incubated for 1 h at room temperature. The cAMP concentration was determined according to the protocol described in the cAMP assay kit, maintaining the plate at room temperature and in the dark. […] Each well was read for 6 seconds. The untransformed data was then analyzed.
The following procedure was used to determine the GABAB receptor agonist activity of a compound as reflected by activation of Ca^2+ signaling. HEK TREx cells expressing GABABR1a2 under tetracycline induction control, and Gqi chimeric protein (expressed constitutively), allowing GABABR coupling through the Ca^2+ signaling pathway were used in the experiments.
Cells were seeded in media containing tetracycline overnight at 100,000 cells/well, in black, clear-bottom, 96-well plates. The following morning, cells were washed twice with 100 μL HBSS buffer per well. Fluorescent Ca^2+ indicator dye was prepared using the materials and procedure described in the F362056 Fluo-4 NW Calcium Assay Kit (Invitrogen, Carlsbad, Calif.). Ten (10) mL of kit buffer and 100 μl of kit Probenecid were added to individual kit dye vials, and rolled back and forth several times to dissolve the dye. Cells were then loaded into the dye solution at 50 μL per well. The cells and dye were incubated for 30 min at 37° C., and then incubated for an additional 30 min at room temperature in the dark. Test compounds are dissolved in HBSS buffer at twice final concentration. Duplicate wells were used for each unique condition. Solution containing the test compound was added to the wells using a FLEXStation II (Molecular Devices, Sunnyvale, Calif.). Using the instrument in kinetic mode in which each well was read every 2 sec over a total collection time of 50 sec fluorescence was measured using an excitation wavelength 494 nm and a detection wavelength of 516 nm. A normalized fluorescence value for each well was calculated using the following procedure.

Sequence of GABAB receptor (Q9UBS5 20-961): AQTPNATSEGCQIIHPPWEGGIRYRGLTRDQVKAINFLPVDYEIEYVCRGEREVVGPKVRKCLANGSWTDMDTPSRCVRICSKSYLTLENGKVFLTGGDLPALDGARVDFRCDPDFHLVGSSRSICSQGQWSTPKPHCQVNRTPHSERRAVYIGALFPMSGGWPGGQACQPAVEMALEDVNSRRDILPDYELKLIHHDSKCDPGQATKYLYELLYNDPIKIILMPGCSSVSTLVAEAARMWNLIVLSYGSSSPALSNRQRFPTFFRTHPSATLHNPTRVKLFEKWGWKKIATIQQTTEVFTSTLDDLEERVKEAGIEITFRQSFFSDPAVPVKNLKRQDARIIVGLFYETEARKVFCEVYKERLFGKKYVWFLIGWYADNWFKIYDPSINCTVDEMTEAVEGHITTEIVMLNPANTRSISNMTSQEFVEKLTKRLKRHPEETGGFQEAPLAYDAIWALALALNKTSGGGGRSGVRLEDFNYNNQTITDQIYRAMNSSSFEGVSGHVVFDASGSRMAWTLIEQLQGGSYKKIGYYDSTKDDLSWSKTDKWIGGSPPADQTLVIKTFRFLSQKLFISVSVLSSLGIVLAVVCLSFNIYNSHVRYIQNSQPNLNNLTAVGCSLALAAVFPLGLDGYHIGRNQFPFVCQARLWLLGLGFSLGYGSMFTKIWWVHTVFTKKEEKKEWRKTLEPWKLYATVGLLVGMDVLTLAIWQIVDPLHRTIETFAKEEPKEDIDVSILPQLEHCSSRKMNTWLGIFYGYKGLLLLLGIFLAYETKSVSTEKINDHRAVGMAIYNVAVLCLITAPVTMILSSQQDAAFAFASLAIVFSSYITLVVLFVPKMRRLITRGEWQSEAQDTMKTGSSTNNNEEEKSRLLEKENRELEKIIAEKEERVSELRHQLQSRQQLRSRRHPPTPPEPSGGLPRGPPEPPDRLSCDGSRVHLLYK
Sequence of GABAB receptor (O75899 42-941 partner): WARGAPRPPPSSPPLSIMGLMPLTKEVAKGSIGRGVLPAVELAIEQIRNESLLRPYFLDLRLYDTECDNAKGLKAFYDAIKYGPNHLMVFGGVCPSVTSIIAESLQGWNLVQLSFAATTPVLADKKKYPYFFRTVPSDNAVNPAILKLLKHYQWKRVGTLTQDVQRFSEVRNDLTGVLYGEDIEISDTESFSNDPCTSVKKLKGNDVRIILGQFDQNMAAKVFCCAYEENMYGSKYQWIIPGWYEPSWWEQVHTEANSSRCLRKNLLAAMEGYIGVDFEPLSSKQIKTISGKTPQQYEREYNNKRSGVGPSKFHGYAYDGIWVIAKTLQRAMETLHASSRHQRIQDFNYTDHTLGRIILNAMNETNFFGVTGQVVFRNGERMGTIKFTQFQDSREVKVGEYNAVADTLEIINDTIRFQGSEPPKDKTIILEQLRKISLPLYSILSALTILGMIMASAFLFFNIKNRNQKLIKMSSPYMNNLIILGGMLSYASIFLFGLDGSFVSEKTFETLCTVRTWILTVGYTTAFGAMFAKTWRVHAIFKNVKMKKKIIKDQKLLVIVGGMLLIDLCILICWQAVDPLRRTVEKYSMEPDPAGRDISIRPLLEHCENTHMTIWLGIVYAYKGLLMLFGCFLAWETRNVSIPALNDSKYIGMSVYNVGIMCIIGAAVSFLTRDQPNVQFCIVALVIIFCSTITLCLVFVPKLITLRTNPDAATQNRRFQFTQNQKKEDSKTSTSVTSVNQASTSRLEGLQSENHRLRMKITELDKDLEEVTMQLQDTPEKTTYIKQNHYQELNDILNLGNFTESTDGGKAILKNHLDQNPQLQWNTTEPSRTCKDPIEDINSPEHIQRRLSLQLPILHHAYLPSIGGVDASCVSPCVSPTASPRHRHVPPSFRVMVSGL

Row | GABAB receptor agonist or partial agonist activity | Compound
1 | agonist or partial agonist activity | CN(C)c1cccc(-c2cc([C@H](CN)CC(=O)O)ccc2Cl)c1.Cl [Example 41, (3R)-4-Amino-3-{3-[3-(dimethylamino)phenyl]-4-chlorophenyl}butanoic acid hydrochloride]
2 | agonist or partial agonist activity | Cl.N#Cc1cc(-c2cc([C@H](CN)CC(=O)O)ccc2Cl)ccc1Cl [Example 49, (3R)-4-Amino-3-[4-chloro-3-(4-chloro-3-cyanophenyl)phenyl]butanoic acid hydrochloride]
3 | agonist or partial agonist activity | Cl.NC[C@H](CC(=O)O)c1cccc(-c2cccc(C(=O)O)c2)c1 [Example 51, 3-{3-[(1R)-2-Amino-1-(carboxymethyl)ethyl]phenyl}benzoic acid hydrochloride]
4 | agonist or partial agonist activity | Cl.N#Cc1cccc(-c2cc([C@H](CN)CCO)ccc2Cl)c1 [Example 53, 3-{5-[(1R)-1-(Aminomethyl)-3-hydroxypropyl]-2-chlorophenyl}benzenecarbonitrile hydrochloride]
5 | agonist or partial agonist activity | Cl.N#Cc1cccc(-c2cc([C@@H](CN)CC(=O)O)ccc2Cl)c1 [(3S)-4-amino-3-[4-chloro-3-(3-cyanophenyl)phenyl]butanoic acid hydrochloride]
6 | agonist or partial agonist activity | Cl.NC[C@H](CC(=O)O)c1ccc(Cl)c(-c2cccc(CO)c2)c1 [Example 28, (3R)-4-Amino-3-{4-chloro-3-[3-(hydroxymethyl)phenyl]phenyl}butanoic acid hydrochloride]
7 | agonist or partial agonist activity | Cl.NC[C@H](CC(=O)O)c1ccc(Cl)c(-c2ccccc2)c1 [Example 39, (3R)-4-Amino-3-(4-chloro-3-phenyl-phenyl)butanoic acid hydrochloride]
8 | agonist or partial agonist activity | Cl.NC[C@H](CC(=O)O)c1ccc(Cl)c(NCc2ccc(C(=O)O)cc2)c1 [Example 63, 4-[({5-[(1R)-2-Amino-1-(carboxymethyl)ethyl]-2-chlorophenyl}amino)methyl]benzoic acid hydrochloride]
9 | agonist or partial agonist activity | Cl.N#Cc1ccc(COc2cc([C@H](CN)CC(=O)O)ccc2Cl)cc1 [(3R)-4-amino-3-{4-chloro-3-[(4-cyanophenyl)methoxy]phenyl}butanoic acid hydrochloride]

The remaining lines, values behind:

Row | Compound | GABAB receptor agonist or partial agonist activity
10 | Cl.NCc1cccc(-c2cccc([C@H](CN)CC(=O)O)c2)c1 [(3R)-4-amino-3-{3-[3-(aminomethyl)phenyl]phenyl}butanoic acid hydrochloride] | agonist or partial agonist activity
11 | NC[C@H](CC(=O)O)c1ccc(Cl)c(NCCc2ccccc2)c1 [(3R)-4-amino-3-{4-chloro-3-[(2-phenylethyl)amino]phenyl}butanoic acid] | agonist or partial agonist activity
12 | Cl.NC[C@H](CC(=O)O)c1cc(Br)c(Cl)c(-c2cccc(C(=O)O)c2)c1 [3-{5-[(1R)-2-amino-1-(carboxymethyl)ethyl]-3-bromo-2-chlorophenyl}benzoic acid hydrochloride] | agonist or partial agonist activity
13 | Cl.N#Cc1ccc(O)c(-c2cc([C@H](CN)CC(=O)O)ccc2Cl)c1 [(3R)-4-amino-3-[4-chloro-3-(3-cyano-6-hydroxyphenyl)phenyl]butanoic acid hydrochloride] | agonist or partial agonist activity
14 | Cl.NC[C@H](CC(=O)O)c1ccc(Cl)cc1-c1cccc(C(=O)O)c1 [3-{2-[(1R)-2-amino-1-(carboxymethyl)ethyl]-5-chlorophenyl}benzoic acid hydrochloride] | agonist or partial agonist activity
15 | Cl.NC[C@H](CC(=O)O)c1ccc(Cl)cc1/C=C/c1ccccc1 [3-[2-((1E)-2-phenylvinyl)-4-chlorophenyl](3R)-4-aminobutanoic acid hydrochloride] | agonist or partial agonist activity
16 | Cl.NC[C@H](CC(=O)O)c1ccc(Cl)c(-c2ccc(CC(=O)O)cc2)c1 [(3R)-4-amino-3-{3-[4-(carboxymethyl)phenyl]-4-chlorophenyl}butanoic acid hydrochloride] | agonist or partial agonist activity
17 | NC[C@H](CC(=O)O)c1ccc(Cl)c(-c2ccsc2)c1 [(3R)-4-amino-3-[4-chloro-3-(3-thienyl)phenyl]butanoic acid] | agonist or partial agonist activity
18 | N#Cc1cccc(C(=O)Nc2cc([C@H](CN)CC(=O)O)ccc2Cl)c1 [(3R)-4-amino-3-{4-chloro-3-[(3-cyanophenyl)carbonylamino]phenyl}butanoic acid] | agonist or partial agonist activity
19 | Cl.NC[C@H](CC(=O)O)c1ccc(Cl)c(-c2cnccc2C(=O)O)c1 [3-{5-[(1R)-2-amino-1-(carboxymethyl)ethyl]-2-chlorophenyl}pyridine-4-carboxylic acid hydrochloride] | agonist or partial agonist activity
20 | Cl.N#Cc1ccccc1COc1cc([C@H](CN)CC(=O)O)ccc1Cl [(3R)-4-amino-3-{4-chloro-3-[(2-cyanophenyl)methoxy]phenyl}butanoic acid hydrochloride] | agonist or partial agonist activity
21 | CC(C)(C)Oc1ccc(CNc2cc([C@H](CN)CC(=O)O)ccc2Cl)cc1.Cl [(3R)-4-amino-3-[3-({[4-(tert-butoxy)phenyl]methyl}amino)-4-chlorophenyl]butanoic acid hydrochloride] | agonist or partial agonist activity
22 | Cl.NC[C@H](CC(=O)O)c1ccc(Cl)c(NCc2cc(C(F)(F)F)cc(C(F)(F)F)c2)c1 [(3R)-4-amino-3-[3-({[3,5-bis(trifluoromethyl)phenyl]methyl}amino)-4-chlorophenyl]butanoic acid hydrochloride] | agonist or partial agonist activity
23 | Cc1ccc(CNc2cc([C@H](CN)CC(=O)O)ccc2Cl)cc1.Cl [(3R)-4-amino-3-(4-chloro-3-{[(4-methylphenyl)methyl]amino}phenyl)butanoic acid hydrochloride] | agonist or partial agonist activity
24 | Cl.N#Cc1cccc(-c2cc([C@H](CN)CC(=O)O)ccc2Cl)n1 [(3R)-4-amino-3-[4-chloro-3-(6-cyano(2-pyridyl))phenyl]butanoic acid hydrochloride] | agonist or partial agonist activity
25 | Cl.N#Cc1cncc(-c2cc([C@H](CN)CC(=O)O)ccc2Cl)c1 [(3R)-4-amino-3-[4-chloro-3-(5-cyano(3-pyridyl))phenyl]butanoic acid hydrochloride] | agonist or partial agonist activity
26 | Cl.NC[C@H](CC(=O)O)c1ccc(Cl)c(Cc2ccncc2)c1 [(3R)-4-amino-3-[4-chloro-3-(4-pyridylmethyl)phenyl]butanoic acid hydrochloride] | agonist or partial agonist activity
27 | Cl.NC[C@H](CC(=O)O)c1ccc(Cl)c(NCc2ccccn2)c1 [Example 58] | agonist or partial agonist activity
28 | Cl.NC[C@H](CC(=O)O)c1ccc(Cl)c(Cc2cccc([N+](=O)[O-])c2)c1 [(3R)-4-amino-3-{4-chloro-3-[(3-nitrophenyl)methyl]phenyl}butanoic acid hydrochloride] | agonist or partial agonist activity
